Consider three compounds from patent US20130324535A1, “USE OF SIGMA LIGANDS IN BONE CANCER PAIN” (LABORATORIOS DEL DR. ESTEVE, S.A., priority 2010, published 2013).

Assay [1] relates to tumor-induced bone pain (tactile allodynia).
Protocol: This study was conducted in two parts; the first phase determined the optimal dose level for the second phase.
The test system of another assay is sigma receptor. The settings on record: Sigma 1 and Sigma 2; cited from earlier work.

The structures appear in SMILES notation. Where a name gives a salt, the structure may show the parent alone. Read-outs that look alike come from different tables or passages of the source.

Consider `Cc1cc(OCCN2CCOCC2)nn1-c1ccc2ccccc2c1` [example 1, 4-{2-[5-Methyl-1-(naphthalen-2-yl)-1H-pyrazol-3-yloxy]ethyl}morpholine hydrochloride], for which the “mitigation of allodynia (von Frey test)” value in assay [1] (Phase 2, example 1 alone 40 mg/kg, 30 minutes after administration) was “not at 40 mg/kg”; in assay [1] (Phase 2, example 1 alone 80 mg/kg, 30 minutes after administration), “statistically significant mitigation of allodynia”.

Regarding `CN1CC[C@]23c4c5ccc(O)c4O[C@H]2[C@@H](O)C=C[C@H]3[C@H]1C5` [morphine], the “mitigation of allodynia (von Frey test)” value in assay [1] (Phase 1, morphine 1.25 mg/kg given at day 18) is given as “sub threshold dose”; in assay [1] (Phase 1, morphine 2.5 mg/kg given at day 18) it was “able to mitigate allodynia with statistical significance”; in assay [1] (Phase 1, morphine 5 mg/kg given at day 18), “able to mitigate allodynia with statistical significance”. Besides, the “effect on allodynia 24 hours after administration” value in assay [1] (Phase 2, morphine 5 mg/kg (positive control), 24 hours after administration) is “no significant effect”.

As for `CC(C)=CCN1CCC2(C)c3cc(O)ccc3CC1C2C` (stereo not shown) [pentazocine], the “affinity of the sigma receptors” value with sigma receptor is reported as “very high affinity”.
